This is an account of results in patent US20230151003A1, “COMPOUNDS AND METHODS OF USE” (Exelixis, Inc., priority 2020, published 2023).

SMILES strings stand for the structures. pIC50: −log10 of the molar value.

In assay [1] the target is T1, AXL (Homo sapiens, UniProt P30530).
T1 construct: endogenous in cells; host or cells: A-172 glioblastoma cells (ATCC #CRL-1620)
T1 sequence (P30530 26-894): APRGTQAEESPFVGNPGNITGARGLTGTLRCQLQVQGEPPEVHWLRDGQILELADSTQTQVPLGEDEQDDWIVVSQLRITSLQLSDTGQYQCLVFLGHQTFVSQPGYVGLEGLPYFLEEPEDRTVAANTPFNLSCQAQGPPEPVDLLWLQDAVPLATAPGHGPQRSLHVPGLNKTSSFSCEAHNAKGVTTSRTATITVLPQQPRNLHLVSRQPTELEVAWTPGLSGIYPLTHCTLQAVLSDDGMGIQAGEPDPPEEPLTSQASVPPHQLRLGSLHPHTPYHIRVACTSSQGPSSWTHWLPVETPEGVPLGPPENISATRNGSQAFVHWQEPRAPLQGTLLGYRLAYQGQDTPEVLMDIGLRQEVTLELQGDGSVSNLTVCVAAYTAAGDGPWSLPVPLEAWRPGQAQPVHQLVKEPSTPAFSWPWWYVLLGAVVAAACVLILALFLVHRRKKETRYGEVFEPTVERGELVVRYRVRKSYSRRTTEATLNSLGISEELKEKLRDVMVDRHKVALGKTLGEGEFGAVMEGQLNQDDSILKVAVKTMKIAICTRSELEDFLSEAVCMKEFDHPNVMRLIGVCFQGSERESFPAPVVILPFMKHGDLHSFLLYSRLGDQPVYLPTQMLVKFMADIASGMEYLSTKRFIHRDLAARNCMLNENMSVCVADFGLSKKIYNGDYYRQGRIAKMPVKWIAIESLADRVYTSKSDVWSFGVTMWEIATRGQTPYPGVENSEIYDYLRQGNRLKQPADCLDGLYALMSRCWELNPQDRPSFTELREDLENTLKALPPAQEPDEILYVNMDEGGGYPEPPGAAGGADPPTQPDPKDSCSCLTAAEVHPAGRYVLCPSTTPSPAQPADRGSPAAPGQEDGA
The assay is described as follows: AXL autophosphorylation ELISA in A-172 cells. It counts as cell-based. The conditions noted are these: Table 3 Cellular Activities, Gas6-stimulated, phospho-AXL ELISA. The procedure, abridged:
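A-172 glioblastoma cells serum-starved 24 h, treated 1 h with compounds (8-point dose curve, 0.3% DMSO), then stimulated with 1 μg/mL Gas6 for 15 min. Lysate phospho-AXL quantified by ELISA against a standard; IC50 from 4-parameter logistic fit, normalised to DMSO and reference-inhibitor controls.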
A general note: ELISA stands for enzyme-linked immunosorbent assay.

The target of assay [2] is Met (Homo sapiens, UniProt P08581). In words: Met autophosphorylation ELISA in PC-3 cells. The class given is cell-based. The arrangement: endogenous in cells; host or cells: PC-3 prostate cancer cells (ATCC #CRL-1435). The note with it: Table 3 Cellular Activities, HGF-stimulated, phospho-Met ELISA, read-out: c-Met IC50. Summed up: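 Serum-starved (3 h) PC-3 cells pre-incubated 1 h with compound (8-point dose curve, 0.3% DMSO), then stimulated with 100 ng/mL recombinant human HGF for 10 min. Lysate phospho-Met (panTyr) measured by sandwich ELISA; IC50 from 4-parameter logistic fit, normalised to DMSO (100%) and reference-inhibitor (0%) controls.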
Met, sequence (P08581 25-1390): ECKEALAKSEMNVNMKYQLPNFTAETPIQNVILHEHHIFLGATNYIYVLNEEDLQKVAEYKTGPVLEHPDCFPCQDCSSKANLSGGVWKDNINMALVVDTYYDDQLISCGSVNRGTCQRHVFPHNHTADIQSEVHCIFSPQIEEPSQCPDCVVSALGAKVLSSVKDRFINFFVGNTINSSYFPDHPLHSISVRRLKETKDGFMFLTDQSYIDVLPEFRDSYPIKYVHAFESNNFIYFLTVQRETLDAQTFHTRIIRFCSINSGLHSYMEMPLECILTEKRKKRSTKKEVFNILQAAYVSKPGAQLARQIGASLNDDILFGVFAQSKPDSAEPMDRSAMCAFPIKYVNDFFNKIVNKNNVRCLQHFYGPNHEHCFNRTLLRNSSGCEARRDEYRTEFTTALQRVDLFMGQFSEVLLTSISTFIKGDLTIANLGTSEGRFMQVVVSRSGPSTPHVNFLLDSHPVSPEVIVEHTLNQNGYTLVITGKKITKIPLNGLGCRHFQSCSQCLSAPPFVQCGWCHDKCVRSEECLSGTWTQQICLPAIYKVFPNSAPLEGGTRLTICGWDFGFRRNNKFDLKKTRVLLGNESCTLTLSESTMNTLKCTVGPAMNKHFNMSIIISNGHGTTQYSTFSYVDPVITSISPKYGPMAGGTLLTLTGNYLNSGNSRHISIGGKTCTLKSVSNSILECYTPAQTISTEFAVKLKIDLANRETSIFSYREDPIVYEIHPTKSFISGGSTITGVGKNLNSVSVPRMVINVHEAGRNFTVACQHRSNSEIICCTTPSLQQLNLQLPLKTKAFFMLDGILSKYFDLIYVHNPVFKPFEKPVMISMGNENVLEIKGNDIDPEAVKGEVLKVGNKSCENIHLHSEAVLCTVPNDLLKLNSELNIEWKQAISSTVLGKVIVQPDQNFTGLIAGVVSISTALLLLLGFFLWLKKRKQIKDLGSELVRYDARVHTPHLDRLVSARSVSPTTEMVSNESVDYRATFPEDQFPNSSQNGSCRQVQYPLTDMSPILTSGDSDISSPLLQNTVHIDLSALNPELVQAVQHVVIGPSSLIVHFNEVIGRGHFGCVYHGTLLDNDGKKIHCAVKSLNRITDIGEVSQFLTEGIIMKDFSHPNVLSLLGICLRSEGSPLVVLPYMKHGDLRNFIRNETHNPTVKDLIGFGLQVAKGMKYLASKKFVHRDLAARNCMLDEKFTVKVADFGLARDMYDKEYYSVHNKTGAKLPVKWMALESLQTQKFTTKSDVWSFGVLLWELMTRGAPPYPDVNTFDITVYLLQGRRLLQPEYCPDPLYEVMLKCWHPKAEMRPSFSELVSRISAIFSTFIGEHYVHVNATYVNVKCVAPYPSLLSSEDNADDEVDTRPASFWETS

One may read the pIC50 as the IC50 on a negative log10 scale, so that one unit is a factor of ten. In the case of `COc1cc2nccc(Oc3ccc(NC(=O)c4c(C)nc(C)c(-c5ccc(C)s5)c4O)cc3F)c2nc1OC` [Compound 111, N-[4-[(6,7-Dimethoxy-1,5-naphthyridin-4-yl)oxy]-3-fluoro-phenyl]-4-hydroxy-2,6-dimethyl-5-(5-methyl-2-thienyl)pyridine-3-carboxamide], the pIC50 in assay [1] and in assay [2] was no less than 7.00 each time.
As for `COc1cc2nccc(Oc3ccc(NC(=O)c4c(C)nc(C)c(-c5ccoc5)c4O)cc3F)c2nc1OC` [Compound 112, N-[4-[(6,7-Dimethoxy-1,5-naphthyridin-4-yl)oxy]-3-fluoro-phenyl]-5-(3-furyl)-4-hydroxy-2,6-dimethyl-pyridine-3-carboxamide], the pIC50 in assay [1] and in assay [2] was no less than 7.00 each time.
As to `COCc1nc(C)c(-c2cccs2)c(O)c1C(=O)Nc1ccc(Oc2ccnc3cc(OC)c(OC)nc23)c(F)c1` [Compound 115, N-[4-[(6,7-Dimethoxy-1,5-naphthyridin-4-yl)oxy]-3-fluorophenyl]-4-hydroxy-2-(methoxymethyl)-6-methyl-5-thiophen-2-ylpyridine-3-carboxamide], the pIC50 in assay [1] and in assay [2] was no less than 7.00 throughout.
As for `COCc1nc(C)c(-c2ccc(C)o2)c(O)c1C(=O)Nc1ccc(Oc2ccnc3cc(OC)c(OC)nc23)c(F)c1` [Compound 117, N-[4-[(6,7-Dimethoxy-1,5-naphthyridin-4-yl)oxy]-3-fluorophenyl]-4-hydroxy-2-(methoxymethyl)-6-methyl-5-(5-methylfuran-2-yl)pyridine-3-carboxamide], the pIC50 in assay [1] and in assay [2] was no less than 7.00 in each case.
Consider `COc1ccc2nccc(Oc3ccc(NC(=O)c4cnc(C)c(-c5ccco5)c4O)cc3F)c2n1` [Compound 118, N-[3-Fluoro-4-[(6-methoxy-1,5-naphthyridin-4-yl)oxy]phenyl]-5-(furan-2-yl)-4-hydroxy-6-methylpyridine-3-carboxamide], for which the pIC50 in assay [1] and in assay [2] was no less than 7.00 throughout.
For the compound `COc1cc2nccc(Oc3ccc(NC(=O)c4c(C)ncc(-c5ccco5)c4O)cc3F)c2nc1OC` [Compound 119, N-[4-[(6,7-Dimethoxy-1,5-naphthyridin-4-yl)oxy]-3-fluorophenyl]-5-(furan-2-yl)-4-hydroxy-2-methylpyridine-3-carboxamide], the negative logarithm of the IC50 (pIC50) in assay [1] and in assay [2] was no less than 7.00 in each case.
Consider `COc1cc2nccc(Oc3ccc(NC(=O)c4c(C)ncc(-c5ccc(C)o5)c4O)cc3F)c2nc1OC` [Compound 120, N-[4-[(6,7-Dimethoxy-1,5-naphthyridin-4-yl)oxy]-3-fluorophenyl]-4-hydroxy-2-methyl-5-(5-methylfuran-2-yl)pyridine-3-carboxamide], for which the pIC50 in assay [1] and in assay [2] was no less than 7.00 each time.
On to `COc1cc2nccc(Oc3ccc(NC(=O)c4c(C)ncc(-c5cccs5)c4O)cc3F)c2nc1OC` [Compound 123, N-[4-[(6,7-Dimethoxy-1,5-naphthyridin-4-yl)oxy]-3-fluorophenyl]-4-hydroxy-2-methyl-5-thiophen-2-ylpyridine-3-carboxamide], for which the pIC50 in assay [1] and in assay [2] was no less than 7.00 throughout.
Consider `COc1cc2nccc(Oc3ccc(NC(=O)c4c(C)ncc(-c5cc(C)cs5)c4O)cc3F)c2nc1OC` [Compound 125, N-[4-[(6,7-Dimethoxy-1,5-naphthyridin-4-yl)oxy]-3-fluorophenyl]-4-hydroxy-2-methyl-5-(4-methylthiophen-2-yl)pyridine-3-carboxamide], for which the negative-log IC50 (pIC50) in assay [1] and in assay [2] was no less than 7.00 each time.
As for `COc1cc2nccc(Oc3ccc(NC(=O)c4c(C)ncc(-c5sccc5C)c4O)cc3F)c2nc1OC` [Compound 126, N-[4-[(6,7-Dimethoxy-1,5-naphthyridin-4-yl)oxy]-3-fluorophenyl]-4-hydroxy-2-methyl-5-(3-methylthiophen-2-yl)pyridine-3-carboxamide], the pIC50 in assay [1] and in assay [2] was no less than 7.00 in each case.
With `COc1cc2nccc(Oc3ccc(NC(=O)c4c(C)ncc(-c5ccsc5)c4O)cc3F)c2nc1OC` [Compound 127, N-[4-[(6,7-Dimethoxy-1,5-naphthyridin-4-yl)oxy]-3-fluorophenyl]-4-hydroxy-2-methyl-5-thiophen-3-ylpyridine-3-carboxamide], the pIC50 in assay [1] and in assay [2] was no less than 7.00 in each case.
In the case of `COc1ccc2nccc(Oc3ccc(NC(=O)c4cnc(C)c(-c5cccs5)c4O)cc3F)c2n1` [Compound 128, N-[3-Fluoro-4-[(6-methoxy-1,5-naphthyridin-4-yl)oxy]phenyl]-4-hydroxy-6-methyl-5-thiophen-2-ylpyridine-3-carboxamide], the negative-log IC50 (pIC50) in assay [1] and in assay [2] was no less than 7.00 each time.
In the case of `COc1cnc2c(Oc3ccc(NC(=O)c4cnc(C)c(-c5ccco5)c4O)cc3)ccnc2c1` [Compound 129, 5-(Furan-2-yl)-4-hydroxy-N-[4-[(7-methoxy-1,5-naphthyridin-4-yl)oxy]phenyl]-6-methylpyridine-3-carboxamide], the pIC50 in assay [1] and in assay [2] was no less than 7.00 throughout.
As to `COc1cc2nccc(Oc3ccc(NC(=O)c4c(C)nc(C)c(-c5ccco5)c4O)cc3F)c2nc1OC` [Compound 135, N-[4-[(6,7-Dimethoxy-1,5-naphthyridin-4-yl)oxy]-3-fluorophenyl]-5-(furan-2-yl)-4-hydroxy-2,6-dimethylpyridine-3-carboxamide], the pIC50 in assay [1] and in assay [2] was no less than 7.00 each time.
On to `COc1cc2nccc(Oc3ccc(NC(=O)c4cnc(C)c(-c5cc(C)nn5C)c4O)cc3F)c2nc1OC` [Compound 136, N-[4-[(6,7-Dimethoxy-1,5-naphthyridin-4-yl)oxy]-3-fluorophenyl]-5-(2,5-dimethylpyrazol-3-yl)-4-hydroxy-6-methylpyridine-3-carboxamide], for which the pIC50 in assay [1] was 6.52 to 7.00; in assay [2], no less than 7.00.
The corresponding values for `COc1cc2nccc(Oc3ccc(NC(=O)c4c(C)nc(C)c(-c5cc(C)cs5)c4O)cc3F)c2nc1OC` [Compound 137, N-[4-[(6,7-Dimethoxy-1,5-naphthyridin-4-yl)oxy]-3-fluorophenyl]-4-hydroxy-2,6-dimethyl-5-(4-methylthiophen-2-yl)pyridine-3-carboxamide] are no less than 7.00 and no less than 7.00.
For the compound `COc1cc2nccc(Oc3ccc(NC(=O)c4c(C)nc(C)c(-c5cc(C(F)(F)F)nn5C)c4O)cc3F)c2nc1OC` [Compound 138], the pIC50 in assay [1] and in assay [2] was no less than 7.00 in each case.
With `COc1cc2nccc(Oc3ccc(NC(=O)c4c(C)nc(C)c(-c5sccc5C)c4O)cc3F)c2nc1OC` [Compound 139, N-[4-[(6,7-Dimethoxy-1,5-naphthyridin-4-yl)oxy]-3-fluorophenyl]-4-hydroxy-2,6-dimethyl-5-(3-methylthiophen-2-yl)pyridine-3-carboxamide], the pIC50 in assay [1] and in assay [2] was no less than 7.00 throughout.
As to `COc1cc2nccc(Oc3ccc(NC(=O)c4cnc(C)c(-c5cnoc5)c4O)cc3F)c2nc1OC` [Compound 140, N-[4-[(6,7-Dimethoxy-1,5-naphthyridin-4-yl)oxy]-3-fluorophenyl]-4-hydroxy-6-methyl-5-(1,2-oxazol-4-yl)pyridine-3-carboxamide], the negative-log IC50 (pIC50) in assay [1] and in assay [2] was no less than 7.00 each time.
For `COc1cc2nccc(Oc3ccc(NC(=O)c4cnc(C)c(-c5cncs5)c4O)cc3F)c2nc1OC` [Compound 141, N-[4-[(6,7-Dimethoxy-1,5-naphthyridin-4-yl)oxy]-3-fluorophenyl]-4-hydroxy-6-methyl-5-(1,3-thiazol-5-yl)pyridine-3-carboxamide], the pIC50 in assay [1] and in assay [2] was no less than 7.00 each time.
`COc1cc2nccc(Oc3ccc(NC(=O)c4cnc(C)c(-c5cscn5)c4O)cc3F)c2nc1OC` [Compound 142, N-[4-[(6,7-Dimethoxy-1,5-naphthyridin-4-yl)oxy]-3-fluorophenyl]-4-hydroxy-6-methyl-5-(1,3-thiazol-4-yl)pyridine-3-carboxamide]: the pIC50 in assay [1] and in assay [2] was no less than 7.00 each time.
